Entries after “also recorded” stand apart in the source; their conditions may differ.
Legend:
[1] = test system: in vitro complement activation (C3 and C4 conversion; MASP-2); assay: in vitro complement activation (C3a and C4a by RIA) in blood or plasma of normal donors; format: biochemical, human; conditions: for MASP activity: inferred from C4a generation in EDTA blood (FIG. 2); for C4 conversion in blood, additive combined with EDTA: additive plus EDTA, 60 min at rt (FIG. 2); for C3a generation in whole blood / C4 conversion (C4a generation) in whole blood: no EDTA; for C3a generation in whole blood: 0.15 mM Benzamidine, 20 μM Trasylol or 0.1 mg/ml Futhan, 0 time vs 60 min at rt (FIG. 2); for C4 conversion (C4a generation) in whole blood: over 60 min at rt (FIG. 2)
Protocol: (§1) Blood samples were either drawn into EDTA tubes (Venoject, Terumo Corp. Elkston, Md.) or Futhan/EDTA tubes (Venoject, Terumo Europe, Leuven, Belgium). The plasma was collected immediately by centrifugation at 2000 g for 15 min. at 4° C. unless otherwise indicated. The plasma samples were either processed immediately for analysis or snap frozen in liquid nitrogen and stored at -70° C. Frozen samples were thawed at 4° C. and processed as described in the text.
(§2) Equal volumes of the plasma sample and the precipitating reagent supplied in the Biotrak RIA kits were mixed by thorough agitation and incubated at rt. for 5 min. The mixture was then centrifuged at 2500 g for 15 min. at 4° C. The supernatant from each sample tube was collected for analysis in the RIA assay. A 50 μl aliquot of the original or diluted supernatant was mixed with 50 μl of the Biotrak assay buffer in a 12×75 mm polypropylene tube. The I^125 labeled C3a or C4a and the specific antibody solutions (50 μl each from the kit) were added and incubated at rt. for 30 min. (for antibody to C3a, C4a, C5a and des Arg derivatives thereof, see Hugli et al. (1975) J. Biol. Chem. 250:1472-1478; Hugli (1975) J. Biol. Chem. 250:8293; and Hugli et al. (1981) J. Biol. Chem. 256:2685-2692). A 50 μl aliquot of the second antibody (goat anti-rabbit) was added to the tube and the mixture incubated for an additional 30 min. at rt. Two ml of isotonic saline was added and the tube was centrifuged at 2000 g for 10 min. at 4° C. to pellet the antigen-antibody complexes. The supernatant in the tubes was decanted and the tubes were counted for 1 min. in a Cobra Auto-gamma Model 5002 (Packard Instrument Co., Meriden, Conn.) scintillation counter. Analysis of each sample was performed in duplicate. Data was analyzed using RiaSmart software supplied by Packard Instruments and installed in the Cobra Auto-gamma counter.
Blood from a normal donor was drawn into EDTA and 0 to 0.2 mg/ml Futhan was added over time indicated. Plasma was recovered within 30 min. of being drawn and a precipitating agent was added to the 0 time plasma sample (EDTA/p10) to prevent further C-activation. An EDTA/Futhan plasma sample (EDTA/p1) and an EDTA/Futhan blood sample (EDTA/b1) were stored for 1 hr. at 22° C. A separate set of EDTA/Futhan plasma samples were either stored at 4° C. for 24 hr (EDTA/p4) or frozen at -70° C. for 24 hr (EDTA/pF) and then thawed for analysis. C3a and C4a levels were determined using a radioimmunoassay procedure.
Whole blood from a normal donor was drawn into 0.15 mM benzamidine, 20 μM Trasylol or 0.1 mg/ml Futhan and processed either immediately (0 time) or after 60 min. at rt, and then analyzed for C3a and C4a.
In this experiment, whole EDTA (0.5 mg/ml) blood from a normal donor was incubated at 4° C. with and without 0.1 mg/ml Futhan added. The C3a and C4a levels were determined versus time over 23-hr.
Complement activation in EDTA plasma was compared with activation in EDTA/Futhan plasma at room temperature (22-24° C.) over a period of one hour (experiment 3A). […] All blood samples were drawn into EDTA, with and without 0.1 mg/ml Futhan present, and the plasma was collected (see Materials and Methods) and frozen at -70° C. These samples were thawed at 4° C. and analyzed after 0 and 60 min. at rt.

[2] = test system: in vitro complement activation (C3 and C4 conversion; MASP-2); assay: in vitro complement activation (C3a and C4a by RIA) in plasma of liver transplant patients; format: biochemical, human
Protocol: Blood from nineteen liver transplant patients was collected in 0.1 mg/ml Futhan and 0.5 mg/ml EDTA. The C3a and C4a levels were measured at 0 time and after 1 hr at room temperature. These samples were obtained during routine visits by the patients having no signs of acute rejection episodes.
Blood samples of 5-10 ml were drawn from normal donors, liver transplant and SLE (lupus) patients under an approved Human Subjects protocol #96-293 and all individuals were asked to sign an informed consent form agreeing to be voluntary donors. Normal donors were a random group of male and female individuals between the ages of 27-48. Liver transplant patients were selected from a group of patients being routinely followed at The Scripps Clinic Foundation by Dr. John Brems. None of these organ transplant patients were experiencing acute rejection episodes at the time that the blood was drawn.
as §1, §2
C3a and C4a generation was examined in EDTA plasma of liver transplant patients (average values, n=19) with and without […] Futhan present. These subjects were stable transplant patients not undergoing a clinically detectable rejection episode.

Hageman factor = conditions: Hitomi et al. (1985); cited from earlier work
Factor Xa = conditions: Hitomi et al. (1985); cited from earlier work
[3] = test system: acute rejection episode in liver transplant patients; assay: treatment of rejection episodes in liver transplant patients; format: in vivo, human; conditions: two 1 g (I.V.) doses
Text: Blood and urine samples were collected over a period of two years from 63 liver transplant patients during routine post-operative clinical visits. The patients' identities were concealed and no selection process or attempt was made to recruit patients for any other reason than that they had undergone orthotopic liver transplantation at The Scripps Clinic and Research Foundation. Immunosuppression was initiated with a regimen of cyclosporine A (CsA), azathioprine and steroids. Treatment for some of these patients was switched to FK506, but none was treated with OKT3. Patients were seen weekly in the outpatient transplant clinic after transplantation until their liver function tests stabilized. […] Measurement of the relevant clinical parameters was obtained during each visit. Liver biopsies were obtained whenever there was an abnormality in liver function tests.

[4] = Table III samples, plasma processed immediately
[5] = n=20, stored at 4° C. for 24 hours
[6] = normal plasma, n = 20, processed immediately at rt, total data set
[7] = normal plasma, processed immediately at rt, values outside ± 2σ eliminated
[8] = normal donor, listed as benzamidine

Q: Which “C4 conversion / C-activation versus time in normal EDTA plasma” value ([1]; 0.01 mg/ml Futhan, dimethanesulfonate) does the source give for `CS(=O)(=O)O.CS(=O)(=O)O.N=C(N)Nc1ccc(C(=O)Oc2ccc3cc(C(=N)N)ccc3c2)cc1` [Futhan, 6-amidino-2-naphthyl-p-guanidinobenzoate dimethanesulfonate] here?
A: measurable reduction in C4 conversion; also recorded: effective in protecting normal plasma from C-activation

Q: What about the “C4 cleavage in normal EDTA plasma” value ([1]; 0.10 mg/ml Futhan, over a 24-hour period) of the same molecule?
A: virtually eliminated C4 cleavage

Q: And the “C3a levels in EDTA samples” value ([1]; 0.2 mg/ml Futhan, compared with lower Futhan levels (experiment 1))?
A: somewhat higher

Q: And the “activation of C4 in normal EDTA plasma” value ([1]; Futhan added (experiment 1))?
A: abolished

Q: What about the “activity of all pathways with Futhan (Futhan/EDTA)” value ([1]; Table II, line IV) of the same molecule?
A: NO IN VITRO C-ACTIVATION

Q: What about the “reduction in C3a levels by addition of Futhan” value [1, 4] of the same molecule?
A: no significant reduction

Q: What about the “reduction in C4a levels by addition of Futhan” value [1, 4] of the same molecule?
A: only marginal reduction

Q: And the MASP activity [1]?
A: inhibits MASP

Q: What about the “C3a and C4a generation in EDTA plasma from normal donors” value ([1]; n=11, 0.1 mg/ml Futhan, rt, one hour (experiment 3A)) of the same molecule?
A: effectively inhibited

Q: What about the “C4 conversion in blood, additive combined with EDTA” value (“C4 conversion in blood” below) ([1]; normal donor, dimethanesulfonate) of the same molecule?
A: fully effective; also recorded: fully blocked in vitro C-activation

Q: And the “C3a generation in whole blood” value ([1]; normal donor)?
A: effective inhibitor

Q: And the “generation of C3a or C4a in stored samples” value ([1]; stored 24 hr on ice or frozen and thawed)?
A: minimal generation of either C3a or C4a

Q: And the “stabilizing C3 and C4 in normal whole blood” value ([1]; with or without EDTA, up to one hour at room temperature (FIG. 2))?
A: effective in stabilizing C3 and C4

Q: And the “time-dependent C3a and C4a elevation in patient EDTA plasma” value ([2]; 60 min at room temperature (experiment 3B))?
A: effectively prevented

Q: And the “levels of C3a and C4a after 1 hr of incubation at rt” value ([2]; nineteen patients, 0.1 mg/ml Futhan and 0.5 mg/ml EDTA)?
A: unchanged in most samples

Q: What about the “C4 converting activity in EDTA plasma” value ([2]; transplant patients) of the same molecule?
A: fully inhibitable

Q: And the “effective inhibitory level toward Hageman factor” value (Hageman factor)?
A: sub-micromolar level

Q: What about the “effective inhibitory level toward Factor Xa” value (Factor Xa) of the same molecule?
A: sub-micromolar level

Q: For `O=C(O)CN(CCN(CC(=O)O)CC(=O)O)CC(=O)O` [EDTA, ethylenediaminetetraacetic acid], which “activity of the Lectin Pathway in EDTA plasma” value ([1]; Table II, line III) is on record?
A: IN VITRO

Q: What about the “C4a elevation over 60 min in normal plasma” value ([1]; n=11, average, rt) of the same molecule?
A: 3-4 fold

Q: What about the “C4a level in normal plasma at 0 time” value ([1]; n=11, frozen at -70° C., thawed at 4° C., 0 min at rt (experiment 3A)) of the same molecule?
A: 242 ± 95 ng/mL

Q: What about the “C4a level in normal plasma after 60 min” value ([1]; n=11, frozen at -70° C., thawed at 4° C., 60 min at rt (experiment 3A)) of the same molecule?
A: 768 ± 392 ng/mL

Q: What about the “C3a values in normal plasma” value [1, 5] of the same molecule?
A: 0.60 ± 0.026 µg/mL

Q: And the “C4a levels in normal plasma” value [1, 5]?
A: 0.32 ± 0.017 µg/mL

Q: What about the “C4a level in whole blood at 4° C., end” value ([1]; normal donor, EDTA 0.5 mg/ml, after 23 hr) of the same molecule?
A: more than 1700 ng/ml

Q: What about the “C4a level in whole blood at 4° C., start” value ([1]; normal donor, EDTA 0.5 mg/ml, start of 23-hr period) of the same molecule?
A: 300 ng/mL

Q: What about the “C3a, mean ± standard deviation, data set I” value ([1]; normal plasma, n = 20, EDTA 1 mg/ml or Futhan 0.2 mg/ml and EDTA, processed immediately at rt, total data set) of the same molecule?
A: 599 ± 263 ng/mL

Q: What about the “C3a, range of values, data set I” value [1, 6] of the same molecule?
A: 349 to 1344 ng/mL

Q: What about the “C4a, mean ± standard deviation, data set I” value [1, 6] of the same molecule?
A: 316 ± 169 ng/mL

Q: What about the “C4a, range of values, data set I” value [1, 6] of the same molecule?
A: 130 to 774 ng/mL

Q: And the “C3a, mean ± standard deviation, data set II” value [1, 7]?
A: 484 ± 110 ng/mL

Q: And the “C3a, range of values, data set II” value [1, 7]?
A: 349 to 722 ng/mL

Q: And the “C4a, mean ± standard deviation, data set II” value [1, 7]?
A: 268 ± 95 ng/mL

Q: And the “C4a, range of values, data set II” value [1, 7]?
A: 130 to 433 ng/mL

Q: And the “C3 conversion when EDTA was added to the blood” value ([1]; normal whole blood (FIG. 2))?
A: virtually no C3 was converted

Q: And the “C4 conversion when EDTA was added to the blood” value ([1]; normal whole blood (FIG. 2))?
A: remarkable increase in C4 conversion

Q: And the “C3a levels in whole blood at 4° C. versus time, relative to Futhan/EDTA blood” value ([1]; over 23 hr)?
A: only slightly higher

Q: What about the “C3a generation in normal blood at 4° C.” value ([1]; over a 27-hr period) of the same molecule?
A: sufficient to prevent C3a generation

Q: What about the “C4a in liver transplant patient plasma after 60 min at rt” value ([2]; n=19, average) of the same molecule?
A: 16.9 µg/mL

Q: What about the “C4a in liver transplant patient plasma at 0 time” value ([2]; n=19, average) of the same molecule?
A: 4.02 µg/mL

Q: What about the “C4a level in liver transplant patient plasma at 0 time” value ([2]; n=19, average (experiment 3B)) of the same molecule?
A: 4020 ± 6100 ng/mL

Q: For `N=C(N)c1ccccc1` [Benzamidine, benzamidine], which MASP activity [1] is on record?
A: does not inhibit MASP activity

Q: And the “C4 conversion in blood” value ([1]; normal donor)?
A: extensive conversion of C4 occurred

Q: And the “C4 conversion in blood” value [1, 8]?
A: high levels of C4a are generated

Q: And the “C4 conversion (C4a generation) in whole blood” value ([1]; normal donor)?
A: relatively effective in preventing C4 conversion

Q: And the “C4 conversion (C4a generation) in whole blood” value [1, 8]?
A: no C4a generated in whole blood

Q: What about the “C3a generation in whole blood” value ([1]; normal donor) of the same molecule?
A: failed to prevent C3a generation

Q: For `C[C@H]1C[C@@H]2[C@H]([C@@H](O)C[C@@]3(C)[C@H]2CC[C@]3(O)C(=O)CO)[C@@]2(C)C=CC(=O)C=C12` [methylprednisolone], which “course of the rejection episode after treatment” value [3] is on record?
A: resolved rapidly

— US6297024A, “Methods for assessing complement activation” (Cell Activation, Inc., priority 1999, dated 2001)
